# How the values were obtained:
# [1] = system: cultured chick heart cells; assay: Influence of TPB and CCCP on (membrane potential-independent) accumulation of Tc-MIBI (FIG. 4); type: cell-based; conditions: CCCP 5 uM; presence and absence of TPB; P<0.001
# Procedure: FIG. 4. […] Preparations were incubated for the times indicated in 5.4 mM Ko control loading buffer containing tracer Tc-MIBI and TPB together (Δ) or in loading buffer containing Tc-MIBI alone (.quadrature.). For the latter incubation, TPB was added to the loading buffer at the arrow and cell content of Tc-MIBI subsequently determined (o). Under each condition, CCCP was added to the loading buffers as indicated by the arrows and cell content of Tc-MIBI determined ( , , ·). Each point is the mean ±SEM of 3 determinations.
# (§1) Monolayers of spontaneously contractile chick ventricular myocardial cells were obtained from disaggregated 10-day old chick embryo hearts by a slight modification of previously published methods (Horres, C. R., et al., In Pinson, A. (ed.), The Heart Cell in Culture, Boca Raton, CRC Press, pp. 77-108 (1987)). Hearts were trimmed of connective tissue and atria, finely minced and serially exposed to 0.024% (w/v) trypsin in Ca^2+ - and Mg^2+ - free Earle's salt solution for 7 minutes at 37° C. Gentle trituration and agitation on an orbital shaker bath aided disaggregation. Cells released from the first exposure were discarded and cells aspirated from the next four exposures were then added to an equal volume of trypsin deactivating solution consisting of ice-cold culture medium. Cells were centrifuged at 400 g for 10 minutes, resuspended and combined in culture medium, counted with a hemocytometer and diluted to yield a suspension of 5×10^5 cells/ml. 12 ml of suspension were incubated in 100 mm plastic culture dishes containing 7 coverslips (25 mm diameter) placed on the bottom of each dish to serve as substrate for cell growth. Cells were maintained in a humidified atmosphere of 5% CO2 /95% air for 3-4 days yielding a confluent layer of spontaneously contractile myocytes on each coverslip.
# Radioactive uptake methods have been described in detail (Piwnica-Worms, D., et al, Circ. (in press). Briefly, coverslips with confluent cells were removed from culture media and pre-equilibrated for 40-60 seconds in MEBSS buffer. Uptake and retention experiments were initiated by immersion of coverslips in 60 mm glass Pyrex dishes containing loading solution consisting of buffer with 0.1-0.6 nM [^99m Tc-MIBI] (0.01-0.4 Ci/nmole; 25-100 uCi/ml). Preparations were removed at various times and rinsed three times in 25 ml volumes of ice-cold (2° C.) isotope-free buffer for 8 seconds each to clear extracellular spaces. Preparations and aliquots of the loading buffer and stock solutions were counted in a well-type sodium iodide gamma counter after which cell protein on each coverslip was extracted in 1% sodium dodecylsulfate with 10 mM sodium borate and assayed by the method of Lowry (Lowry, O. H., et al., J. Biol. Chem. 193:265-275 (1951)). Tc-MIBI binding to glass coverslips without cells was used as an estimate of non-specific adhesion to the substrate ([…] obtained with cellular preparations); this value was subtracted from total uptake determinations to derive the cell-associated counts. Use of generator equilibrium equations (Lamson, M. L., et al., i J. Nucl. Med. 16:639-641 (1975)) allowed calculation of absolute moles of Tc-MIBI in solutions and preparations. Results were therefore expressed as fmol cellular Tc-MIBI/mg protein per nM extracellular Tc-MIBI concentration. […]
# [2] = system: cultured chick myocardial cells; conditions: cited from earlier work
# [3] = system: cultured chick heart cells; assay: Effect of MSA on Tc-MIBI net accumulation (FIG. 3); type: cell-based; conditions: MSA 5.4 mM
# Procedure: FIG. 3. Effect of MSA on Tc-MIBI net accumulation. Preparations were incubated for the times indicated in Tc-MIBI loading buffer containing 5.4 mM KCl (.quadrature., .smallcircle.) or 5.4 mM K-MSA ( , ·; prepared by equimolar substitution of K-MSA KCl) in the absence (.quadrature., ) or presence (.smallcircle., ·) of TPB (10^-5 M). Each point represents the mean ±SEM of 3 determinations.
# Control buffer was a modified Earle's balanced salt solution (MEBSS) with the following composition (mN) Na^30, 145; K^+, 5.4; Ca^2, 1.2; Mg^2+, 0.8; Cl, 152; H2 PO4, 0.8; SO4^2-, 0.8; dextrose, 5.6; HEPES, 4.0; and bovine calf serum, 1% (v/v); […]; 37° C. K-methanesulfonate was made by titration of methanesulfonic acid with KOH (Piwnica-Worms, D., et al., J. Gen. Physiol. 81:731-748 (1983)) and replaced […] in some solutions by equimolar substitution where indicated. Natetraphenylborate, CCCP, bumetanide and valinomycin were dissolved into DMSO prior to addition to buffer. DMSO alone has no significant affect on contractile activity, action potential configuration (Lieberman, M., et al., Dev. Biol. 31:380-403 (1973)) or Tc-MIBI uptake kinetics (Piwnica-Worms, D., et al., Circ. (in press)).
# (§2) Monolayers of spontaneously contractile chick ventricular myocardial cells were obtained from disaggregated 10-day old chick embryo hearts by a slight modification of previously published methods (Horres, C. R., et al., In Pinson, A. (ed.), The Heart Cell in Culture, Boca Raton, CRC Press, pp. 77-108 (1987)). […] Cells were centrifuged at 400 g for 10 minutes, resuspended and combined in culture medium, counted with a hemocytometer and diluted to yield a suspension of 5×10^5 cells/ml. […]
# Radioactive uptake methods have been described in detail (Piwnica-Worms, D., et al, Circ. (in press). Briefly, coverslips with confluent cells were removed from culture media and pre-equilibrated for 40-60 seconds in MEBSS buffer. Uptake and retention experiments were initiated by immersion of coverslips in 60 mm glass Pyrex dishes containing loading solution consisting of buffer with 0.1-0.6 nM [^99m Tc-MIBI] (0.01-0.4 Ci/nmole; 25-100 uCi/ml). Preparations were removed at various times and rinsed three times in 25 ml volumes of ice-cold (2° C.) isotope-free buffer for 8 seconds each to clear extracellular spaces. Preparations and aliquots of the loading buffer and stock solutions were counted in a well-type sodium iodide gamma counter after which cell protein on each coverslip was extracted in 1% sodium dodecylsulfate with 10 mM sodium borate and assayed by the method of Lowry (Lowry, O. H., et al., J. Biol. Chem. 193:265-275 (1951)). […]
# [4] = system: cultured chick heart cells; assay: Effect of phloretin, alone or with TPB, on net uptake of Tc-MIBI in cultured chick heart cells (FIG. 7, 8); type: cell-based
# Procedure: FIG. 7. Effect of phloretin on net accumulation of Tc-M1B1 in cultured heart cells. Preparations were incubated for the times indicated in Tc-MIBI loading buffer in the absence (.quadrature.) or presence of phloretin ( , 10^-7 M; , 10^-4 M). Each point represents the mean ±SEM of 3-4 determinations.
# FIG. 8. Effect of phloretin and tetraphenylborate together on net uptake of Tc-MB1 in cultured chick heart cells. Preparations were incubated in MEBSS containing Tc-MIBI for 30 minutes in the absence (control) or presence of tetraphenylborate and phloretin each alone or in combination as indicated on the abscissa. Each group of four conditions (two groups in A and one group in B) represent separate cultures. Error bars indicate ±SEM for three or more determinations.
# as §2
# Radioactive uptake methods have been described in detail (Piwnica-Worms, D., et al, Circ. (in press). Briefly, coverslips with confluent cells were removed from culture media and pre-equilibrated for 40-60 seconds in MEBSS buffer. Uptake and retention experiments were initiated by immersion of coverslips in 60 mm glass Pyrex dishes containing loading solution consisting of buffer with 0.1-0.6 nM [^99m Tc-MIBI] (0.01-0.4 Ci/nmole; 25-100 uCi/ml). Preparations were removed at various times and rinsed three times in 25 ml volumes of ice-cold (2° C.) isotope-free buffer for 8 seconds each to clear extracellular spaces. […] Results were therefore expressed as fmol cellular Tc-MIBI/mg protein per nM extracellular Tc-MIBI concentration. […]
# [5] = system: cultured chick heart cells; assay: Effect of valinomycin on tetraphenylborate enhancement of Tc-MIBI accumulation in high Ko buffer (Table 1); type: cell-based; conditions: valinomycin 1 ug/ml; high K buffer
# Procedure: as §1
# Radioactive uptake methods have been described in detail (Piwnica-Worms, D., et al, Circ. (in press). Briefly, coverslips with confluent cells were removed from culture media and pre-equilibrated for 40-60 seconds in MEBSS buffer. Uptake and retention experiments were initiated by immersion of coverslips in 60 mm glass Pyrex dishes containing loading solution consisting of buffer with 0.1-0.6 nM [^99m Tc-MIBI] (0.01-0.4 Ci/nmole; 25-100 uCi/ml). Preparations were removed at various times and rinsed three times in 25 ml volumes of ice-cold (2° C.) isotope-free buffer for 8 seconds each to clear extracellular spaces. Preparations and aliquots of the loading buffer and stock solutions were counted in a well-type sodium iodide gamma counter after which cell protein on each coverslip was extracted in 1% sodium dodecylsulfate with 10 mM sodium borate and assayed by the method of Lowry (Lowry, O. H., et al., J. Biol. Chem. 193:265-275 (1951)). Tc-MIBI binding to glass coverslips without cells was used as an estimate of non-specific adhesion to the substrate ([…] obtained with cellular preparations); this value was subtracted from total uptake determinations to derive the cell-associated counts. Use of generator equilibrium equations (Lamson, M. L., et al., i J. Nucl. Med. 16:639-641 (1975)) allowed calculation of absolute moles of Tc-MIBI in solutions and preparations. Results were therefore expressed as fmol cellular Tc-MIBI/mg protein per nM extracellular Tc-MIBI concentration. Division of this value by the cell water space (6.9 ul/mg protein; Chiu, M. L., et al., J. Nucl. Med. (31:1646-1653(1990)) yields a nominal intracellular/extracellular Tc-MIBI accumulation ratio neglecting subcellular compartmentation of the agent.
# To further explore the influence of TPB on any potential-independent accumulation of Tc-MIBI in myocytes, preparations were exposed to 130 mM K° 20 mM Clo buffer (Table 1). […] Equilibration of intracellular and extracellular spaces occurred in the presence of high K buffer plus valinomycin under all conditions (in/out ration ~1; P=NS) indicating the lack of any significant potential-independent membrane binding of Tc-MIBI.
# Preparations were incubated in high Ko low Clo loading buffer +/- valinomycin (1 ug/ml) for 20 minutes in the presence of TPB (10^-5 M) or for 40 minutes in its absence to determine peak accumulation of Tc-MIBI under each condition. Values are the mean ±SEM. Tc-MIBI in/out ratios were obtained by dividing net uptake values by the cell water space of […] (Chiu, M. L., et al., J. Nucl. 31:1646-1653 (1990)). +p<0.01; * p<0.001 compared to net uptake in 130 mM Ko buffer.
# cells and mitochondria = conditions: cited from earlier work; for toxic effects on mitochondrial function: typical loading activities
smiles,measurement,setting,value
"N#CC(C#N)=NNc1cccc(Cl)c1 [CCCP, carbonyl cyanide-m-chlorphenylhydrazone, reference compound]",release of myocellular Tc-MIBI,[1],rapid and near complete release of myocellular Tc-MIBI
same,unidirectional influx and net cellular accumulation of Tc-MIBI,"[2]; CCCP, mitochondrial depolarization",decreases the unidirectional influx and net cellular accumulation of TC-MIBI
[N-]=[N+]=[N-] [sodium azide],net uptake of Tc-MIBI,[2]; sodium azide in combination with oligomycin,virtually eliminates net uptake of the agent
CC[C@H]1/C=C/C=C/C[C@@H](C)[C@H](O)[C@@](C)(O)C(=O)[C@@H](C)[C@H](O)[C@@H](C)C(=O)[C@@H](C)[C@H](O)[C@@H](C)/C=C/C(=O)O[C@@H]2[C@H](C)[C@H](CC1)O[C@]1(CC[C@H](C)[C@H](C[C@@H](C)O)O1)[C@H]2C [oligomycin],Tc-MIBI uptake or retention,"[2]; oligomycin, mitochondrial hyperpolarization",increases Tc-MIBI uptake or retention
"CS(=O)(=O)O [MSA, methanesulfonate, reference compound]",uptake kinetics or equilibrium content of Tc-MIBI,[3],did not significantly alter uptake kinetics or equilibrium content of Tc-MIBI
same,TPB-induced enhancement of Tc-MIBI accumulation,[3]; TPB 10^-5 M,did not interfere with the TPB-induced enhancement of Tc-MIBI accumulation
"O=C(CCc1ccc(O)cc1)c1c(O)cc(O)cc1O [phloretin, 3-(4-hydroxyphenyl)-1-(2,4,6-trihydroxyphenyl)-1-propanone]",fold induction at 100 µM,"[4]; Gallus gallus, 0.5 h, phloretin 10^-4 M, 30 minute uptake (FIG. 8), approximately, read-out: net retention of Tc-MIBI above control levels",2.5 to 3.5
same,additive enhancement by tetraphenylborate and phloretin,"[4]; phloretin 10^-4 M and 10^-5 M with 10^-5 M TPB, 30 minutes",no evidence of additive enhancement by tetraphenylborate and phloretin
same,net uptake of Tc-MIBI enhanced above control,"[4]; phloretin 10^-4 M, within 30 minutes (FIG. 7)",five-fold
CO[C@@H]1C[C@@H](C[C@H]2CC[C@H](C)[C@H]([C@@H](C)C(=O)O)O2)O[C@]2(O[C@](C)([C@H]3CC[C@@](C)([C@@H]4O[C@@H]([C@H]5O[C@@](O)(CO)[C@H](C)C[C@@H]5C)C[C@@H]4C)O3)C[C@H]2C)[C@@H]1C [nigericin],net cellular uptake of Tc-MIBI,"[2]; nigericin, mitochondrial hyperpolarization",increases net cellular uptake of Tc-MIBI
"CC(C)[C@@H]1NC(=O)[C@H](C)OC(=O)[C@@H](C(C)C)NC(=O)[C@@H](C(C)C)OC(=O)[C@H](C(C)C)NC(=O)[C@H](C)OC(=O)[C@@H](C(C)C)NC(=O)[C@@H](C(C)C)OC(=O)[C@H](C(C)C)NC(=O)[C@H](C)OC(=O)[C@@H](C(C)C)NC(=O)[C@@H](C(C)C)OC1=O [valinomycin, reference compound]",net accumulation of Tc-MIBI,[5],eliminated net accumulation of Tc-MIBI
"c1ccc([P+](c2ccccc2)(c2ccccc2)c2ccccc2)cc1 [TPP^+, tetraphenylphosphonium]",toxic effects on mitochondrial function,cells and mitochondria,toxic effects on mitochondrial function
COC(=O)c1ccccc1-c1c2ccc(=N)cc-2oc2cc(N)ccc12 [rhodamine 123],toxicity to cells and mitochondria,cells and mitochondria,shown to be toxic to cells and mitochondria
same,toxic effects on mitochondrial function,cells and mitochondria,toxic effects on mitochondrial function

# From US5277897A, “In vivo enhancement of cellular accumulation of lipophilic cationic organometallic compounds by reduction of intramembrane potential” (Brigham and Women's Hospital, priority 1992, dated 1994)
